Measurements reported in patent EP4389123A1 (priority 2022, dated 2024).

Key:
[1] = target: murine prion strain RML (Mus musculus, UniProt P04925); format: biochemical
[2] = tested on: Vole-CWD prion strain; design: species or system mice; conditions: mouse, in vivo
[3] = tested on: RML; design: species or system mice; conditions: mouse, in vivo
[4] = tested on: 22L; design: species or system mice; conditions: mouse, in vivo
[5] = tested on: human prion strain causing Gerstmann-Sträussler-Scheinker syndrome (GSS); design: species or system mice; conditions: mouse, in vivo, ip
[6] = tested on: 301C; design: species or system mice; conditions: mouse, in vivo

Chain of murine prion strain RML (P04925 23-230 limits assumed): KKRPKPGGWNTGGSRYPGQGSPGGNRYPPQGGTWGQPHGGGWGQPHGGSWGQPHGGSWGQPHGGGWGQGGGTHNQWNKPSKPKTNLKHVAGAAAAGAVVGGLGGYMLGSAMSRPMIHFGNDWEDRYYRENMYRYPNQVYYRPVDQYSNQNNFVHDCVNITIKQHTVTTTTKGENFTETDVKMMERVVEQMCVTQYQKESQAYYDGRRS

Row | SMILES | prion propagation inhibitory capacity [1] | times more efficient as inhibitor [1] [times] | increase in survival time [2] [%] | increase in survival times [3] [%] | survival time prolongation [4] [%] | increase in survival time [5] [%] | survival time prolongation [6] [%]
1 | C[n+]1ccc(-c2c3nc(c(-c4cc[n+](C)cc4)c4ccc([nH]4)c(-c4cc[n+](C)cc4)c4nc(c(-c5cc[n+](C)cc5)c5ccc2[nH]5)C=C4)C=C3)cc1 [TMPyP, reference compound] | showed prion propagation inhibitory capacity | – | – | – | – | – | –
2 | O=C(O)CCC1=C(CC(=O)O)c2cc3[nH]c(cc4nc(cc5[nH]c(cc1n2)c(CC(=O)O)c5CCC(=O)O)C(CC(=O)O)=C4CCC(=O)O)c(CC(=O)O)c3CCC(=O)O [UROI, uroporphyrin I] | showed prion propagation inhibitory capacity | 125 | 11 | 30 | 10 | > 200 | 12
